From US9682060B2, “Small molecules that induce intrinsic pathway apoptosis” (The Board of Trustees of the University of Illinois, priority 2015, dated 2017) come the findings set out here.

The test system of one series is HL-60. The series is described as follows: Raptinal toxicity, 24 hour IC50 (MTS assay for suspension cells). It is filed as cell-based. The conditions noted are these: HL-60 (Human Leukemia); 24 hour incubation; mean ± SD. The method, then:
(§1) MTS Assay for Suspension Cells.
(§2) Serial dilutions of compound in 100% DMSO were added in triplicate (2 μL to each well) to empty wells of a 96-well plate. Suspension cells (HL-60, U-937, SKW 6.4, Jurkat W T, Jurkat CASP8^−/−, Jurkat FADD^−/−, Jurkat Bcl-2) cells in RPMI 1640 media were added to 96-well plates (198 μL containing 4×10^4 cells) and the cells incubated for 24 hours.

A further series deals with SKW 6.4. The description is as above. It is filed as cell-based. As to conditions: SKW 6.4 (Human Lymphoma); 24 hour incubation; mean ± SD. The procedure:
as §1, §2

The next series relates to Jurkat. The description is as above. The conditions noted are these: Jurkat (Human Leukemia); 24 hour incubation; mean ± SD. In kind it is cell-based. The procedure: as §1, §2
In a further series the test system is U-937. Described as above. In kind it is cell-based. As to conditions: U-937 (Human Lymphoma); 24 hour incubation; mean ± SD. The procedure:
as §1, §2

Series [1] deals with U-937 cells. In words: Cytochrome c release by immunoblot and flow cytometry. It is filed as cell-based, Human. The conditions noted are these: 10 μM. The method, then: (§3) Cytochrome c Release by Immunoblot.
(§4) U-937 cells (3×10^6 cells in 2 mL RPMI) or SKW 6.4 cells (5×10^6 cells in 2 mL RPMI) were treated with 10 μM Raptinal for 10, 20, 30, 45 or 60 minutes in a 12-well plate. Cells were centrifuged (1000×g. 2 min), washed with ice-cold PBS and resuspended in cold 200 μL digitonin permeabilization buffer (75 mM NaCl, 1 mM Sodium phosphate monobasic, 8 mM sodium phosphate dibasic, 250 mM sucrose, 190 μg/mL digitonin, protease cocktail inhibitor, pH 7.5) and placed on ice for 5 min. Cell permeability (>95%) was confirmed by trypan blue. The permeabilized cells were centrifuged (14000×g, 5 min) and 150 μL of supernatant (cytosolic fraction) was saved. The pellet (mitochondrial fraction) was washed in 200 μL digitonin permeabilization buffer and lysed in 25 μL RIPA lysis buffer. […]
(§5) Suspension cells (2.5×10^6 SKW 6.4 cells or 1.5×10^6 U-937 cells in 1 mL RPMI) were treated with 10 μM Raptinal in a 24 well plate for 10, 20, 30, 45 and 60 min. The cells were centrifuged (1000×g, 2 min), washed with cold PBS and resuspended in cold permeabilization buffer (PBS containing 50 μg/mL digitonin and 100 mM KCl) and placed on ice for 5 min after which >95% of cells were permeabilized as determined by trypan blue. […] The cells were pelleted and washed with PBS (3 mL) and resuspended in PBS (1 mL) and analyzed by flow cytometry. […]

The test system of a further series is SKW 6.4 cells. The description is as above. The conditions noted are these: 10 μM. It is filed as cell-based, Human. The procedure: as §3, §4, §5
Another series deals with T1, recombinant procaspase-3 (Homo sapiens, UniProt P42574).
T1 construct: His tag (inferred from the nickel-NTA purification); made in house
T1 sequence (P42574 whole entry): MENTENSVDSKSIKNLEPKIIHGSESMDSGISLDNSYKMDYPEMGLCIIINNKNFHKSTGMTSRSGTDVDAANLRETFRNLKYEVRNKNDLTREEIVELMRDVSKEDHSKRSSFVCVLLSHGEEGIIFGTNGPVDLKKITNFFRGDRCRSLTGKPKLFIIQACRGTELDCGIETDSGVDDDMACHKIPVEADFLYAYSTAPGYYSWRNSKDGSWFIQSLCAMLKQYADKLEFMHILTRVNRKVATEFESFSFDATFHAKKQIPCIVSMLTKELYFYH
In words: In vitro activation of procaspase-3. The conditions noted are these: up to 100 μM; 250 nM procaspase-3; Ac-DEVD-AFC cleavage. In kind it is biochemical. The method, then:
In Vitro Activation of Procaspase-3.
Procaspase-3 was expressed as described previously and purified with Qiagen nickel-NTA resin (Hsu et al., 2012). Increasing concentrations of Raptinal (0, 10, 25, 50 and 100 μM) and 25 μM 1541B were assessed for their capacity to enhance the activity of procaspase-3 over time. 250 nM procaspase-3 was treated with compounds in caspase activity buffer (50 mM HEPES, 50 mM KCl, 0.1 mM EDTA, 10 mM DTT, 0.01% Triton X-100, pH 7.4) and activity was assessed by cleavage of Ac-DEVD-AFC (50 μM) at designated time points.

Series [2] concerns U-937 cells. The series is described as follows: Annexin V/PI cell viability analysis. The conditions noted are these: U-937 cells; 10 μM; time course AV/PI, based on data in FIG. 1F.
The format of series [3] is in vivo, C57BL/6 mice. As to conditions: mice; single-dose intravenous 15-60 mg/kg. The method, then: Pharmacokinetics and Toxicity Profiling in Mice.
All animal studies were performed with prior approval by the University of Illinois at Urbana-Champaign IACUC committee. Eight week old female C57BL/6 mice were used for all pharmacokinetic and toxicity experiments. […]. For toxicity assessment, Raptinal was administered intravenously as a single-dose injection across a dose range of 15-60 mg/kg, and mice were sacrificed 7 days post-injection for evidence of hematologic toxicity (n=3 mice/group).

“Also recorded” adds a separate entry of the source.

The term IC50 denotes the point on the concentration scale where inhibition reaches its midpoint. High values mean weaker potency, low ones greater potency. In the case of `O=CC1(C2(C=O)c3ccccc3-c3ccccc32)c2ccccc2-c2ccccc21` [Raptinal, [9,9′]bifluorenyl-9,9′-dicarbaldehyde], the IC50 is 2.1 ± 1.4 µM in the series with HL-60, 1.1 ± 0.1 µM with SKW 6.4, 2.7 ± 0.9 µM in the series on Jurkat and 0.7 ± 0.3 µM in the series with U-937. Moreover, the “time of earliest / partial cytochrome c release” value in the series on U-937 cells [1] and with SKW 6.4 cells was 10 min in each case. Moreover, the “direct activation of recombinant procaspase-3 (enzymatic activity)” value at recombinant procaspase-3 is listed as “does not directly activate; also recorded: no increase in enzymatic activity”. In the series on U-937 cells [2], the “Time to 50% death” value was 1.5 h. Moreover, the tolerability result in series [3] is “well tolerated”.
